Assay results as given in patent publication US20190134060A1, “25-HYDROXYCHOLESTEROL AND METHODS OF USE THEREOF” (priority 2016, published 2019).
“Also recorded” adds a separate entry of the source.

How the values were obtained:
rat hippocampal cultures = assay: Oxygen-glucose deprivation (OGD, 2.5 hours)-induced cell death, PI/Hoechst survival; assay type: cell-based; conditions: for OGD-induced cell death exacerbated by 24S-HC, effect of NMDAR antagonist: co-treatment prior to and during OGD
Description: (§1) Cell culture. All animal care and experimental procedures were consistent with National Institutes of Health guidelines and were approved by the Washington University Animal Studies Committee. Studies involving animals are reported in accordance with the ARRIVE guidelines for reporting experiments involving animals (12, 13). Rat or mouse hippocampal cultures were prepared from postnatal day 1 to 3, pups of both sexes (85% female) anaesthetized with isoflurane. Hippocampal slices (500 μm thickness) were digested with 1 mg⋅mL^−1 papain in oxygenated LeibovitzL-15 medium (Life Technologies, Gaithersburg, Md., USA). Tissue was mechanically triturated in modified Eagle's medium (Life Technologies) containing 5% horse serum, 5% FCS, 17 mM D glucose, 400 μM glutamine, 50 U⋅mL^−1 penicillin and 50 μg⋅mL^−1 streptomycin. Cells were seeded in modified Eagle's medium at a density of ˜650 cells per mm^2 (onto 25 mm cover glasses coated with 5 mg⋅mL^−1 collagen or 0.1 mg⋅mL^−1 poly-D-lysine with 1 mg⋅mL^−1 laminin). Cultures were incubated at 37° C. in a humidified chamber with 5% CO2/95% air. Cytosine arabinoside (6.7 μM) was added 3-4 days after plating to inhibit glial proliferation. The following day, half of the culture medium was replaced with Neurobasal medium (Life Technologies) plus B27 supplement (Life Technologies).
(§2) Oxygen-glucose deprivation. Mass cultures (13-14 DIV) were exposed to oxygen-glucose deprivation (OGD), in which original medium containing 25 mM glucose was exchanged for fresh MEM medium […] and exposed to a sealed chamber (Billups-Rothenberg, Del Mar, Calif., USA), humidified and saturated with 95% nitrogen and 5% CO2 at 37° C., for 2.5 hours. The gas exchange followed the specifications of the chamber manufacturer (flow of 20 L⋅minute^−1 for 4 minutes to achieve 100% gas exchange). In some experiments, original medium was exchanged for fresh MEM medium containing the specified drugs immediately prior to OGD exposure. Controls were incubated in MEM medium without oxygen deprivation. Following OGD or control treatment, cells were returned to their original medium and incubated under standard culture conditions until the cell death assay (24 hours later). Hoechst 33342 (5 μM) was used to identify all nuclei and propidium iodide (PI, 3 μM) for 30 minutes to stain nuclei of cells with compromised membranes.
(§3) Data analysis. Five 10× microscope fields were quantified per condition per experiment, yielding>100 total neurons for each condition. Ratios of healthy neurons were quantified as the fraction of PI-negative neuronal nuclei to total neuronal nuclei. Automated cell counting algorithms (ImageJ software, National Institutes of Health, Bethesda, Md., USA) were used for cell counts. Toxicity experiments were treated as a dependent sample design (32) in which sibling cultures plated in identical media and exposed to OGD at the same time were compared by repeated measures statistics. Results are shown as means±SEM. Comparative statistics were performed with Student's t-test or one-way repeated measures ANOVA where indicated.

hippocampal cultures [1] = assay: NMDA-induced cell death (NMDA toxicity) in hippocampal cultures; assay type: cell-based
Description: If the neuroprotective effects of 25-HC are entirely through antagonism of NMDAR function and endogenous, local 24S-HC, it would be expected that 25-HC should also reduce direct NMDA-induced cell death. NMDA was exogenously applied at either 8 μM or 20 μM to induce mild or severe toxicity (FIG. 5A).
as §1, §3

NMDARs [2] = assay: Modulation of NMDAR function
NMDARs [3] = conditions: cited from earlier work
hippocampal cultures [4] = assay: More severe OGD (3 hours) with NMDAR blockade by MK-801, cell death; assay type: cell-based; conditions: for normalized survival: n=9 cultures
Description: As a final test, a more severe OGD insult was applied by increasing OGD exposure time from 2.5 hours to 3 hours to help emphasize any NMDAR-independent mechanisms of OGD-induced death.
as §2, §3

hippocampal cultures [5] = assay: H2O2 induced toxicity (model of oxidative damage); assay type: cell-based; conditions: H2O2 100 μM, 1 hour treatment; in the presence of MK-801
Description: (§4) FIG. 6A, FIG. 6B, FIG. 6C, FIG. 6D, and FIG. 6E depict graphs showing that 25-HC has an NMDAR-independent protecting effect on OGD-induced cell death. (FIG. 6A) Survival rate was compared between control, OGD (3 hour), OGD (3 hour)+MK-801, and OGD (3 hour) +MK-801+25-HC. […] 25-HC protected against the MK-801 insensitive OGD-induced cell death. (n=12 cultures for each group, one-way repeated measures ANOVA with Bonferroni's post hoc test, *p<0.05, ***p<0.001). […] (FIG. 6C) H2O2 (100 μM, 1 hour treatment) toxicity was used to test neuroprotection of 25-HC. 25-HC again yielded mild but reliable protection (N=10 cultures for each group, one-way repeated measures ANOVA with Bonferroni's post hoc test, *P<0.05). (FIG. 6D) and (FIG. 6E) Neither WT nor CYP46A1 knockout hippocampal neuron cultures from C571Bl/6 mice was sensitive to the mild NMDAR independent neuroprotective effect of 25-HC (N=7 cultures for each group; P>0.05).
(§5) To further test the NMDAR-independence neuroprotective effect, a model of oxidative damage: H2O2 induced toxicity was used.

[6] = test system: hippocampal neuron cultures from C571Bl/6 mice; assay: NMDAR-independent neuroprotection in WT and CYP46A1 knockout mouse hippocampal neuron cultures; assay type: cell-based
Description: as §4, §5
Cell culture. All animal care and experimental procedures were consistent with National Institutes of Health guidelines and were approved by the Washington University Animal Studies Committee. Studies involving animals are reported in accordance with the ARRIVE guidelines for reporting experiments involving animals (12, 13). […]

For CC(C)[C@@H](O)CC[C@@H](C)[C@H]1CC[C@H]2[C@@H]3CC=C4C[C@@H](O)CC[C@]4(C)[C@H]3CC[C@]12C [24S-HC, 24S-hydroxycholesterol], which “survival compared to OGD alone” value (rat hippocampal cultures; 24S-HC 0.5 μM) is on record?
The value was “significantly poorer survival”.

And the “OGD-induced cell death / survival rate” value (rat hippocampal cultures; 24S-HC 2 μM, exogenous application, WT rat hippocampal cultures 14 days in vitro)?
The value was “significantly poorer survival; also recorded: enhanced OGD-induced cell death; also recorded: significantly lower survival rate”.

What about the “effect on survival when administered alone (no OGD)” value (rat hippocampal cultures; 24S-HC alone) of the same compound?
Its value is “Consistent effects of 24S-HC were not observed”.

What about the “concentration dependence of OGD-induced cell death” value (rat hippocampal cultures; 24S-HC over a range of 50 nM to 2 μM, rat cultures) of the same compound?
The value was “depended on 24S-HC concentration”.

What about the “NMDA toxicity with 24S-HC co-treatment” value (hippocampal cultures [1]; 8 μM NMDA) of the same compound?
The value was “exacerbated NMDA toxicity”.

What about the “exogenous concentration needed to potentiate NMDAR function” value (NMDARs [2]) of the same compound?
Its value is about 50 nM.

What about the “concentration at which effects on NMDAR function saturate” value (NMDARs [3]) of the same compound?
Its value is about 10 µM.

With C[C@H](CCCC(C)(C)O)[C@H]1CC[C@H]2[C@@H]3CC=C4C[C@@H](O)CC[C@]4(C)[C@H]3CC[C@]12C [25-HC, 5-cholestene-3β,25-diol] as the compound, how does the “OGD-induced cell death without exogenous 24S-HC” value (rat hippocampal cultures; 10 μM 25-HC incubation during the OGD insult) read?
The value was “alleviated”.

And the “SGE-201-exacerbated OGD injury” value (rat hippocampal cultures; 10 μM 25-HC with 1 μM SGE-201)?
Its value is “alleviated”.

What about the “survival rates, treatment before versus after OGD insult” value (rat hippocampal cultures; 25-HC before or after OGD insult) of the same compound?
Its value is “comparable survival rates”.

What about the “OGD-induced cell death relative to 24S-HC and OGD alone” value (rat hippocampal cultures; co-treatment 10 μM 25-HC and 2 μM 24S-HC) of the same compound?
Its value is “significantly alleviated OGD-induced cell death”.

And the “24S-HC exacerbation of NMDA toxicity” value (hippocampal cultures [1]; 10 μM 25-HC, 8 μM NMDA + 24S-HC)?
The value was “significantly alleviated”.

And the “neuroprotection against NMDA-induced cell death” value (hippocampal cultures [1]; 10 μM 25-HC, NMDA 8 μM or 20 μM)?
Its value is “no neuroprotection”.

What about the “neuroprotection against MK-801 insensitive OGD-induced cell death” value (hippocampal cultures [4]; 10 μM 25-HC in the presence of 20 μM MK-801, OGD 3 hours) of the same compound?
The value was “mild but significant neuroprotection”.

What about the “neuroprotection against H2O2 induced toxicity” value (hippocampal cultures [5]) of the same compound?
The value was “mild but consistent neuroprotective effect”.

And the NMDAR-independent neuroprotective effect ([6]; CYP46A1 knockout mouse cultures)?
Its NMDAR-independent neuroprotective effect is “did not extend”.

What about the NMDAR-independent neuroprotective effect ([6]; WT mouse cultures) of the same compound?
The NMDAR-independent neuroprotective effect was “did not extend”.

What about the “antagonism of 24S-HC effects on NMDARs” value (NMDARs [3]) of the same compound?
Its value is “non-competitively antagonizes”.

Which “OGD-induced cell death in AAV-CYP-GFP and AAV-GFP-infected neuron cultures” value (rat hippocampal cultures; APV) does the source give for N[C@@H](CCCP(=O)(O)O)C(=O)O [APV] here?
The value was “prevented OGD-induced cell death”.

And the “neuroprotection against OGD” value (rat hippocampal cultures; administered before and during OGD)?
The value was “highly neuroprotective”.

And the “neuroprotection against OGD” value (rat hippocampal cultures; administered during the latent period following OGD insult)?
The value was “much less effective”.

What about the “OGD-induced cell death exacerbated by 24S-HC, effect of NMDAR antagonist” value (rat hippocampal cultures) of the same compound?
Its value is “rescued”.

Which “OGD-induced cell death exacerbated by 24S-HC, effect of NMDAR antagonist” value (rat hippocampal cultures) does the source give for C[C@]12N[C@H](Cc3ccccc31)c1ccccc12 [MK-801] here?
The value was “prevented”.

And the “cell death after OGD 3 hours” value (hippocampal cultures [4]; 20 μM MK-801)?
The value was “partially rescued”.

And the normalized survival (hippocampal cultures [4]; OGD 3 hours + 20 μM MK-801)?
The normalized survival was 0.66±0.03.

Which cell survival (hippocampal cultures [1]; NMDA at 8 μM and 20 μM) does the source give for CN[C@H](CC(=O)O)C(=O)O [NMDA] here?
The cell survival was “significantly reduced cell survival”.

Which results are given for C[C@H](CCC(C)(C)O)[C@H]1CC[C@H]2[C@@H]3CC=C4C[C@@H](O)CC[C@]4(C)[C@H]3CC[C@]12C [SGE-201]?
OGD injury (rat hippocampal cultures; 1 μM SGE-201): exacerbated OGD injury; exacerbation of OGD toxicity (hippocampal cultures [4]; 1 μM SGE-201 in the presence of 20 μM MK-801): failed to exacerbate OGD toxicity; normalized survival (hippocampal cultures [4]; OGD 3 hours + 20 μM MK-801 + 1 μM SGE-201): 0.64±0.04
